Reference: patent publication EP3050886A1, “Fluorescent dyes and dye precursors” (Bürkert Werke GmbH, priority 2015, dated 2016)
Entries after “also recorded” stand apart in the source; their conditions may differ.

Key:
[1] = Short-term chemical stability (spontaneous fluorescence generation) in aqueous buffer; format: physicochemical; details: for chemical stability in aqueous solution (in words): PBS solution containing 0.6 % glutaraldehyde, 37°C; for relative speed of spontaneous fluorescence generation (spontaneous hydrolysis): relative to 5-CFDA, 15 µM, PBS containing 0.6 % glutaraldehyde, pH ~7, 37°C, 0-60 min
Description: The short-term chemical stability of the pro-fluorophores of the present invention in an aqueous buffer was evaluated by fluorometric measurement analysis after several minutes of storage at 37°C.
Each pro-fluorophore (5-CFDA, 5-PFDAE, 5-PFDAT, 5-PFDA, 5-COGDA, 5-POGDA, 5-POGAM) was dissolved in dimethylsulfoxide (DMSO) in order to prepare a 10 mM stock solution. Short-term stability studies (0-60 min) were performed in the absence of light at 37°C. The pro-fluorophore stock solutions were diluted into a PBS solution containing 0.6 % of glutaraldehyde (pH ∼7). The pro-fuorophore final concentration was 15 µM. Samples were stored in a fluorescence grade quartz cuvette having a volume of 1 ml. Fluorescence emission spectra between 500 and 540 nm were recorded every 10 minutes. The excitation wavelength used was 488 nm. Fluorometric measurement were made with a FluoroLog®-3. (Horiba Jobin Yvon) spectrofluorometer equipped with sample stirring. The same experiment was repeated three times (n = 3).
Thus, the slope of the straight line corresponds to the speed of spontaneous fluorescence generation.

E. coli (ATCC 8739) = assay: Labeling of viable E. coli, fluorescence intensity by spectrofluorometer; format: cell-based, Escherichia coli; details: for E. coli staining at 40 µM compared with 5-CFDA or 5-PFDA / concentration range resulting in a saturation process / concentration up to which an increase of viable E. coli fluorescence intensity is obtained: data not shown; for viable E. coli fluorescence intensity relative to 5-CFDA staining: 10 - 15 µM, 30 min at 37 °C, excitation 488 nm, emission 517 nm, Figure 5
Description: For the staining tests, E. coli (ATCC 8739 or EC18), E. cloacae, C. indologenes, P. aeruginosa and B. subtilis were cultivated in Luria-Bertani (LB) broth until exponential phase at 37°C with shaking at 300 rpm revolutions per minutes (rpm). Bacteria were harvested and washed in sterile phosphate buffer saline solution (PBS) at pH […] by centrifugation at 10000 rpm for 3 min at room temperature (21 ± 2 °C). Then the bacteria were resuspended in PBS at a concentration of 1·10^9 bacteria/ml. Bacteria concentration was calculated according to the turbidity measure at 660 nm (A660nm=1 correspond to bacterial suspension at ∼ 5·10^8 bacteria/ ml).
Dead bacterial suspensions at 1·10^9 bacteria/ml (negative controls) of these five species of bacteria were prepared individually by addition of 20 µl of bleach containing 2.6 % active chlorine. Bacteria were treated with bleach solution for 15 min. Dead bacteria were washed twice in sterile PBS by centrifugation at 10000 rpm for 3 min at room temperature. The culturability of the negative controls was assessed by plating 100 µl of bacterial suspension onto LB agar or Caso agar and incubating the plates at 37 °C for 72 h.
[…] Bacteria were incubated at 37 °C for 10 - 60 min with pro-fluorophore in darkness. After bacterial staining, they were washed and resuspended in 100 µl of PBS as described above.
(§1) Staining of the bacterial suspension was observed under a fluorescent microscope. These bacteria were imaged with a Leica DM5500 microscope equipped with FITC filter. […] Images were collected with a 100x objective. Fluorescence intensity of stained bacterial suspension was also measured with FluoroLog®-3 (Horiba Jobin Yvon) spectrofluorometer equipped with sample stirring. Samples were placed in fluorescence grade quartz cuvette having a volume of 1 ml. The excitation wavelength used was 488 nm and emission wavelength used was 517 nm. The same experiment was repeated three times (n = 3).
Viable or dead E. coli (ATCC 8739) were incubated with different pro-fluorophores (10 - 15 µM) for 30 min at 37 °C. After washes, fluorescence of the E. coli suspension was measured with a FluoroLog®-3 spectrofluorometer (excitation wavelength: 488 nm, emission wavelength: 517 nm). Relative rates of viable E. coli fluorescence intensity were calculated by normalizing the difference of viable E. coli fluorescence intensity and dead E. coli fluorescence intensity with 5-CFDA staining.
Viable E. coli (ATCC 8739) were incubated with different pro-fluorophores (15 µM) at 37 °C for 10 - 60 min. After washes, E. coli fluorescence suspension was measured with FluoroLog®-3 spectrofluorometer (excitation wavelength: 488 nm, emission wavelength: 517 nm).

E. coli (EC18) = assay: Immunocapture of E. coli on beads and viability staining; format: cell-based, Escherichia coli; details: 10 µM, 30 min at 37 °C, Trypan Blue as contrast agent
Text: In a further test, antibodies anti-EC18 pAB and pro-fluorophores (5-POGDA, 5-POGAM) were used to immobilize E. coli (EC18) on beads and to reveal the immobilized bacteria respectively. Immunocapture of E. coli on beads was done in order to concentrate the fluorescent signal in order to improve the detection of the viable cells. In these experiments, Protein G Sepharose beads coated with goat-anti-rabbit immunoglobulins were used.
Environmental E. coli (E18) were cultivated and re-suspended in PBS as previously described. E. coli (EC18) (100 µl of suspension at 1*10^9 bacteria/ml) were incubated with rabbit anti-EC18 polyclonal antibodies (anti-EC18 pAb) or pre-immune control rabbit serum without anti-EC18 antibodies (PI-pAb) (dilution 1/20) for 1 h at room temperature. This control rabbit serum (PI-pAb) was obtained from a non-immunized animal (Eurogentec). It was used as a negative control. Bacteria were washed three times in PBS by centrifugation at 10000 rpm for 3 min at room temperature.
Proteine G Sepharose 4 Fast Flow beads were washed three times in Milli-Q water and three times in PBS by centrifugation at 2000 rpm for 2 min at 4 °C. Then 10 µl of sedimented beads were incubated with 20 µg of secondary antibody goat-anti-rabbit immunoglobulin (Thermo Scientific Pierce, 31210) in 500 µl of PBS with 0.001% of NP40 for 1h at room temperature with gentle mixing on a wheel. […]

[2] = tested on: Comamonas testosteroni/alcaligenes; assay: Bacteria staining test, fluorescence microscopy (data not shown); format: cell-based
Description: (§2) Bacteria (100 µl suspension at 1·10^9 bacteria/ml) were stained with 10 µM or 15 µM of pro-fluorophore (5-CFDA, 5-PFDAE, 5-PFDAT, 5-PFDA, 5-COGDA, 5-POGDA or 5-POGAM) in 200 µl of PBS solution containing 0.6 % of glutaraldehyde. Bacteria were incubated at 37 °C for 10 - 60 min with pro-fluorophore in darkness. After bacterial staining, they were washed and resuspended in 100 µl of PBS as described above.
as §1
(§3) No fluorescence signal was detected by microscopy analysis with the dead bacteria.

Citobacter freudii = assay: as above; format: cell-based
Description: as §2, §1, §3

Klebsiella oxytoca = assay: as above; format: cell-based
Description: as §2, §1, §3

Row | Structure (SMILES) | chemical stability in aqueous solution (in words) [1] | relative speed of spontaneous fluorescence generation (spontaneous hydrolysis) [1] | E. coli staining at 40 µM compared with 5-CFDA or 5-PFDA (E. coli (ATCC 8739)) | viable E. coli fluorescence intensity relative to 5-CFDA staining (E. coli (ATCC 8739)) | concentration range resulting in a saturation process (E. coli (ATCC 8739)) | concentration up to which an increase of viable E. coli fluorescence intensity is obtained (E. coli (ATCC 8739)) | fluorescence intensity of viable E. coli captured on beads compared with 5-CFDA (E. coli (EC18)) | staining of viable versus dead bacteria [2] | staining of viable versus dead bacteria (Citobacter freudii) | staining of viable versus dead bacteria (Klebsiella oxytoca)
1 | CCCNC(=O)c1ccc2c(c1)C(=O)OC21c2cc(F)c(OCOC(C)=O)cc2Oc2cc(OCOC(C)=O)c(F)cc21 [Example 5-POGAM, 2',7'-difluoro-3-oxo-5-(propylcarbamoyl)-3H-spiroisobenzofuran-1,9'-xanthene-3',6'-diyl diacetoxymethyl ether] | greater chemical stability in aqueous solution; also recorded: much more stable in aqueous solution | almost four times slower | stronger E. coli staining than 5-CFDA or 5-PFDA | between two and three times higher; also recorded: three times brighter | 20 to 40 µM | about 15 µM | still higher than the fluorescence intensity of E. coli stained with 5-CFDA | The same results were obtained | The same results were obtained | The same results were obtained
2 | CCCNC(=O)c1ccc2c(c1)C(=O)OC21c2cc(F)c(OC(C)=O)cc2Oc2cc(OC(C)=O)c(F)cc21 [Example 5-POGDA, 2',7'-difluoro-3-oxo-5-(propylcarbamoyl)-3H-spiro[isobenzofuran-1,9'-xanthene]-3',6'-diyl diacetate] | less stable | almost six times higher | stronger E. coli staining than 5-CFDA or 5-PFDA | approximately 6 | 20 to 40 µM | about 15 µM | still higher than the fluorescence intensity of E. coli stained with 5-CFDA | The same results were obtained | The same results were obtained | The same results were obtained
